Experimental data as given in patent US10016382B2, “Method for decreasing skeletal muscle damage and/or oxidative stress in mammals” (LONZA INC., priority 2014, dated 2018).

Assays:
Assay type in all cases: in vivo, dog
[1] = Body composition by DEXA scan, Example 2 part one; conditions: for Lean mass (LM) change / Total tissue mass change: over 14 week study
Excerpt: Each dog was also scanned for body composition as described in Example 1 just prior to the beginning of the study and twenty-four hours following the final endurance run.

canine myoglobin = test: Serum canine myoglobin, Example 2 part one; conditions: for Serum myoglobin: Ex.2 part one, 250 mg/d; for Myoglobin: serum
Experimental: Twenty-four hours after test dogs ran the last 15 mile endurance run, serum samples were taken to evaluate biomarkers for muscle damage and antioxidant status. Blood samples were taken 1) just prior to the beginning of the study; 2) 1 day prior to running the final 15 mile run on the 14th week; 3) 1 hour immediately following the 15 mile run; and 4) 24 hours following the final 15 mile run. After a blood sample was drawn, it was allowed to clot for 30 minutes at 25° C. before being centrifuged for 15 minutes at 2000 g at 4° C. Serum was aliquoted into 0.65 mL microcentrifuge tubes and stored at −80° C. until being assayed at the end of the study for creatine kinase, canine myoglobin, thiobarbituric acid reactive substances (TBARS), and total antioxidant capacity (TAC) using the commercially available kits described in Example 1.

Labrador Retrievers = test: Oxygen consumption on treadmill (Oxymax open-circuit calorimeter), Example 2 part three
Experimental: Sixteen Labrador Retrievers ranging in age from 1.5 to 3 years were fed low carnitine basal diets with and without added L-carnitine for a 37 week period that included part one and two of the study. Eight (4 male and 4 female) of the test L-carnitine dogs were each fed 3.75 g sugar and 250 mg of L-carnitine, while the other eight dogs (4 male and 4 female) were fed only 4 g of sugar each day for the experimental period. The sixteen test dogs were fed the same diet for parts one, two, and three of the study. During part three of the study, the 16 test dogs were exclusively exercised on the industry sized canine treadmill. Initial Oxymax data was developed for each of the test dogs at various times and speeds in order to determine appropriate speeds on the treadmill required to achieve maximum VO2 concentration. The dogs were run for 15 minutes at 6.5 mph to determine VO2 max. The 16 test dogs were then ran at 50% VO2 max (equivalent to 4 mph) on the treadmill for 30 minutes to determine total energy expenditure (heat production). The system used to acquire information on volume of oxygen consumption and energy expenditure was an Open-Circuit calorimeter, which employed air from the surrounding environment. A mask specially designed for dogs was used to recover the gas sample and ventilate the dog. A small sample was drawn for gas analysis and dried to assure that the readings were made in a sample that was not under the influence of water vapor air exiting the chamber. The O2 and CO2 sensors were connected to software, and instant values of O2 and CO2 were measured. The 16 test dogs (8 L-carnitine dogs, 4 male and 4 female, and 8 control dogs, 4 male and 4 female) were exercised at a warm up speed of 2 mph for 5 minutes prior to running at VO2 max for 15 minutes at 6.5 mph. The next week, the test dogs ran again at a warm up speed of 2 mph for 5 minutes and then at 50% VO2 max for 30 minutes at 4 mph. The statistical analysis for gas exchange was analyzed by a factorial design 2×2 (2 genders and 2 diet treatments) and 2×2×2 (2 genders, 2 diets, 2 speeds) at p-value<0.05. The variable maximum oxygen consumption (Max VO2) was the highest amount of oxygen consumption during the exercise time. The mean oxygen consumption (Mean VO2) was the average amount of oxygen consumption during the exercise time. Oxygen consumption was reported on a per L/kg BW/h basis.

[2] = Ex.2 part one, 250 mg/d, both sexes
[3] = Ex.2 part one, 250 mg/d, females
[4] = Ex.2 part three, 250 mg/d, females, 6.5 mph for 15 min (VO2 max)
[5] = Ex.2 part three, 250 mg/d, females, 50% VO2 max (4 mph, 30 min)
[6] = Ex.2 part three, 250 mg/d, females, average of combined speeds (4 mph and 6.5 mph)
[7] = combined speeds 4.0 and 6.5 (50% VO2 Max and VO2 Max), diet main effect, both genders
[8] = combined speeds 4.0 and 6.5 (50% VO2 Max and VO2 Max), female dogs
[9] = combined speeds 4.0 and 6.5 (50% VO2 Max and VO2 Max), male dogs
[10] = treadmill speed 4 for 30 min (50% VO2 Max), diet main effect, both genders
[11] = treadmill speed 4 for 30 min (50% VO2 Max), female dogs
[12] = treadmill speed 4 for 30 min (50% VO2 Max), male dogs
[13] = treadmill speed 6.5 for 15 min (VO2 Max), diet main effect, both genders
[14] = treadmill speed 6.5 for 15 min (VO2 Max), female dogs
[15] = treadmill speed 6.5 for 15 min (VO2 Max), male dogs

SMILES: C[N+](C)(C)C[C@H](O)CC(=O)[O-] [L-carnitine]
- Increase in % fat mass ([1]; Ex.2 part one, 250 mg/d, females, vs 3.01% control females (p=0.3893)): 1.58%
- Lean mass (LM) change [1, 2]: 0.68 kg
- Total tissue mass change [1, 2]: 0.74 kg
- Lean mass (LM) change [1, 3]: 0.45 kg
- Total tissue mass change [1, 3]: 0.78 kg
- Lean mass (LM) change ([1]; Ex.2 part one, 250 mg/d, males): 0.91 kg
- Total tissue mass change ([1]; Ex.2 part one, 250 mg/d, males): 0.70 kg
- % Fat ([1]; Female, Change): 1.58 ± 1.29%
- BMC ([1]; Female, Change): 9.54 ± 6.72 g
- BMD ([1]; Female, Change): 0.0029 ± 0.005 g/cm2
- Fat ([1]; Female, Change): 0.56 ± 0.35 kg
- Lean Mass ([1]; Female, Change): 0.45 ± 0.21 kg
- Total Tissue ([1]; Female, Change): 0.78 ± 0.27 kg
- % Fat ([1]; Female, Final): 18.43 ± 1.75%
- BMC ([1]; Female, Final): 716.5 ± 30.63 g
- BMD ([1]; Female, Final): 0.58 ± 0.01 g/cm2
- Fat ([1]; Female, Final): 4.62 ± 0.57 kg
- Lean Mass ([1]; Female, Final): 19.95 ± 0.65 kg
- Total Tissue ([1]; Female, Final): 24.34 ± 0.94 kg
- % Fat ([1]; Female, Initial): 16.85 ± 2.1%
- BMC ([1]; Female, Initial): 706.96 ± 30.19 g
- BMD ([1]; Female, Initial): 0.58 ± 0.01 g/cm2
- Fat ([1]; Female, Initial): 4.07 ± 0.59 kg
- Lean Mass ([1]; Female, Initial): 19.49 ± 0.69 kg
- Total Tissue ([1]; Female, Initial): 23.56 ± 0.86 kg
- % Fat ([1]; Male, Change): 0.49 ± 0.61%
- BMC ([1]; Male, Change): 6.54 ± 6.57 g
- BMD ([1]; Male, Change): 0.011 ± 0.005 g/cm2
- Fat ([1]; Male, Change): 0.22 ± 0.2 kg
- Lean Mass ([1]; Male, Change): 0.91 ± 0.22 kg
- Total Tissue ([1]; Male, Change): 0.7 ± 0.19 kg
- % Fat ([1]; Male, Final): 14.81 ± 1.05%
- BMC ([1]; Male, Final): 927.39 ± 25.32 g
- BMD ([1]; Male, Final): 0.65 ± 0.01 g/cm2
- Fat ([1]; Male, Final): 4.56 ± 0.36 kg
- Lean Mass ([1]; Male, Final): 26.54 ± 0.71 kg
- Total Tissue ([1]; Male, Final): 30.67 ± 0.72 kg
- % Fat ([1]; Male, Initial): 14.31 ± 1.16%
- BMC ([1]; Male, Initial): 920.86 ± 25.96 g
- BMD ([1]; Male, Initial): 0.64 ± 0.01 g/cm2
- Fat ([1]; Male, Initial): 4.34 ± 0.42 kg
- Lean Mass ([1]; Male, Initial): 25.63 ± 0.58 kg
- Total Tissue ([1]; Male, Initial): 29.97 ± 0.75 kg
- % Fat ([1]; all dogs, Change): 1.04 ± 0.71%
- BMC ([1]; all dogs, Change): 8.04 ± 4.62 g
- BMD ([1]; all dogs, Change): 0.007 ± 0.003 g/cm2
- Fat ([1]; all dogs, Change): 0.39 ± 0.2 kg
- Lean Mass ([1]; all dogs, Change): 0.68 ± 0.16 kg
- Total Tissue ([1]; all dogs, Change): 0.74 ± 0.16 kg
- % Fat ([1]; all dogs, Final): 16.62 ± 1.06%
- BMC ([1]; all dogs, Final): 821.95 ± 28.14 g
- BMD ([1]; all dogs, Final): 0.61 ± 0.01 g/cm2
- Fat ([1]; all dogs, Final): 4.59 ± 0.33 kg
- Lean Mass ([1]; all dogs, Final): 23.24 ± 0.79 kg
- Total Tissue ([1]; all dogs, Final): 27.5 ± 0.84 kg
- % Fat ([1]; all dogs, Initial): 15.58 ± 1.2%
- BMC ([1]; all dogs, Initial): 813.91 ± 28.38 g
- BMD ([1]; all dogs, Initial): 0.608 ± 0.01 g/cm2
- Fat ([1]; all dogs, Initial): 4.2 ± 0.35 kg
- Lean Mass ([1]; all dogs, Initial): 22.56 ± 0.74 kg
- Total Tissue ([1]; all dogs, Initial): 26.76 ± 0.83 kg
- Serum myoglobin (canine myoglobin; post-run 1 hour): 23.83 ng/mL
- Serum myoglobin (canine myoglobin; post-run 24 hour): 9.25 ng/mL
- Myoglobin (canine myoglobin; FEMALES, Baseline): 17.33 ± 4.7 ng/mL
- Myoglobin (canine myoglobin; FEMALES, Post-Run 1 Hr): 25.19 ± 4.25 ng/mL
- Myoglobin (canine myoglobin; FEMALES, Post-Run 24 Hr): 8.08 ± 2.83 ng/mL
- Myoglobin (canine myoglobin; FEMALES, Pre-Run): 4.88 ± 1.24 ng/mL
- Myoglobin (canine myoglobin; MALES, Baseline): 22.22 ± 6.92 ng/mL
- Myoglobin (canine myoglobin; MALES, Post-Run 1 Hr): 22.46 ± 4.41 ng/mL
- Myoglobin (canine myoglobin; MALES, Post-Run 24 Hr): 4.41 ± 0.64 ng/mL
- Myoglobin (canine myoglobin; MALES, Pre-Run): 8.69 ± 3.25 ng/mL
- Myoglobin (canine myoglobin; Whole Groups, Baseline): 19.78 ± 4.13 ng/mL
- Myoglobin (canine myoglobin; Whole Groups, Post-Run 1 Hr, Post-Run 1 Hr): 23.83 ± 3.02 ng/mL
- Myoglobin (canine myoglobin; Whole Groups, Post-Run 24 Hr, Post-Run 24 Hr): 6.25 ± 1.47 ng/mL
- Myoglobin (canine myoglobin; Whole Groups, Pre-Run): 6.78 ± 1.74 ng/mL
- Max VO2 consumption (Labrador Retrievers; [4]): 60.8 mL/min/kg
- Mean VO2 (Labrador Retrievers; [4]): 3.11 L/kg/h
- Max VO2 consumption (Labrador Retrievers; [5]): 42 mL/min/kg
- Mean VO2 (Labrador Retrievers; [5]): 1.99 L/kg/h
- Maximum VO2 consumption (Labrador Retrievers; [6]): 50.3 mL/min/kg
- Mean VO2 consumption (Labrador Retrievers; [6]): 41.7 mL/min/kg
- Max VO2 (Labrador Retrievers; [7]): 2.80 L/kg/h
- Mean VO2 (Labrador Retrievers; [7]): 2.40 L/kg/h
- Max VO2 (Labrador Retrievers; [8]): 3.02 a L/Kg/h
- Mean VO2 (Labrador Retrievers; [8]): 2.50 a L/Kg/h
- Max VO2 (Labrador Retrievers; [9]): 2.57 ab L/Kg/h
- Mean VO2 (Labrador Retrievers; [9]): 2.31 ab L/Kg/h
- Max VO2 (Labrador Retrievers; [10]): 2.39 L/kg/h
- Mean VO2 (Labrador Retrievers; [10]): 1.98 L/kg/h
- Max VO2 (Labrador Retrievers; [11]): 2.52 L/kg/h
- Mean VO2 (Labrador Retrievers; [11]): 1.99 L/kg/h
- Max VO2 (Labrador Retrievers; [12]): 2.26 L/kg/h
- Mean VO2 (Labrador Retrievers; [12]): 1.97 L/kg/h
- Max VO2 (Labrador Retrievers; [13]): 3.27 L/kg/h
- Mean VO2 (Labrador Retrievers; [13]): 2.89 L/kg/h
- Max VO2 (Labrador Retrievers; [14]): 3.65 L/kg/h
- Mean VO2 (Labrador Retrievers; [14]): 3.11 L/kg/h
- Max VO2 (Labrador Retrievers; [15]): 2.89 L/kg/h
- Mean VO2 (Labrador Retrievers; [15]): 2.66 L/kg/h
